# In patent US9169254B2, “Spiroimidazolone derivative” (Chugai Seiyaku Kabushiki Kaisha, priority 2009, dated 2015):
# Target: T1, human PTH1 receptor (Homo sapiens, UniProt Q03431)
# T1 sequence (Q03431 27-593): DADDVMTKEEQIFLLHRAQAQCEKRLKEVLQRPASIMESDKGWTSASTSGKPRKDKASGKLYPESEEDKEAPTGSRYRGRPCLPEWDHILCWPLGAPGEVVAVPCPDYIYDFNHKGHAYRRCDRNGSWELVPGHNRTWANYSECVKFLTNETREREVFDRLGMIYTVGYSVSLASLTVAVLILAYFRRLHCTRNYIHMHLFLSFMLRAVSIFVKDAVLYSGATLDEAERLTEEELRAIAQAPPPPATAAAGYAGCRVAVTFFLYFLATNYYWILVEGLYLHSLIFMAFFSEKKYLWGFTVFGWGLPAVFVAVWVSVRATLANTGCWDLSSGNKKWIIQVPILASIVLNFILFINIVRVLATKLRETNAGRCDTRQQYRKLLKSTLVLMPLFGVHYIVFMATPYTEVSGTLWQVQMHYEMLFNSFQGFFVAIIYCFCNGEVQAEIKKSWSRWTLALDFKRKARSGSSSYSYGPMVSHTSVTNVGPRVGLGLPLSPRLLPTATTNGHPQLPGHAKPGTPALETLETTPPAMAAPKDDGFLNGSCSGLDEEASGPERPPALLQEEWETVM
# Assay: In vitro cAMP signal activity in HKRK-B7 cells (LLC-PK1 cells overexpressing the human PTH1 receptor)
# Type: cell-based
# Conditions: HKRK-B7 cells; compound at 1×10^−3 M; cAMP produced as percentage of that produced by hPTH(1-34) at 100 nM
row,cAMP production activity (%),SMILES
1,90,"Cc1cc(C(=O)N(C)C)ccc1CCS(=O)(=O)N1CCC2(CC1)N=C(c1cccc(OC(F)(F)F)c1)N/C2=N\O [Compound 900, 4-{2-[4-[(Z)-hydroxyimino]-2-(3-trifluoromethoxy-phenyl)-1,3,8-triaza-spiro[4.5]dec-1-ene-8-sulfonyl]-ethyl}-3,N,N-trimethyl-benzamide]"
2,2.5,"Cc1cc(CN)ccc1CCS(=O)(=O)N1CCC2(CC1)N=C(C1CCC(CCC(F)(F)F)CC1)NC2=O.O=C(O)C(F)(F)F (centres unmarked) [Compound 1284, 8-[2-(4-aminomethyl-2-methyl-phenyl)-ethanesulfonyl]-2-[4-(3,3,3-trifluoro-propyl)-cyclohexyl]-1,3,8-triaza-spiro[4.5]dec-1-en-4-one]"
3,57,"O=C1NC(c2cccc(C(F)(F)F)c2)=NC12CCN(S(=O)(=O)c1ccc(Cl)s1)CC2 [Compound 66, 8-(5-Chloro-thiophene-2-sulfonyl)-2-(3-trifluoromethyl-phenyl)-1,3,8-triaza-spiro[4.5]dec-1-en-4-one]"
4,44,"CC(=O)N(CC(F)(F)F)c1ccc(/C=C/S(=O)(=O)N2CCC3(CC2)N=C(c2cccc(OC(F)(F)F)c2)NC3=O)c(C)c1 [Compound 613, N-(3-methyl-4-{(E)-2-[4-oxo-2-(3-trifluoromethoxy-phenyl)-1,3,8-triaza-spiro[4.5]dec-1-ene-8-sulfonyl]-vinyl}-phenyl)-N-(2,2,2-trifluoro-ethyl)-acetamide]"
5,121,"Cc1cc(N(C)C(N)=O)cc(C)c1CCS(=O)(=O)N1CCC2(CC1)N=C(CCCCCCCCCCCNC(=O)OC(C)(C)C)NC2=O [Compound 1360, [11-(8-{2-[2,6-dimethyl-4-(1-methyl-ureido)-phenyl]-ethanesulfonyl}-4-oxo-1,3,8-triaza-spiro[4.5]dec-1-en-2-yl)-undecyl]-carbamic acid tert-butyl ester]"
6,111,"Cc1cc(N(C)C(N)=O)cc(C)c1CCS(=O)(=O)N1CCC2(CC1)N=C(C1CCC(=CCC(F)(F)F)CC1)NC2=O (centres unmarked) [Compound 939, 1-[3,5-Dimethyl-4-(2-{4-oxo-2-[4-(3,3,3-trifluoro-propylidene)-cyclohexyl]-1,3,8-triaza-spiro[4.5]dec-1-ene-8-sulfonyl}-ethyl)-phenyl]-1-methyl-urea]"
7,55,"Cc1cc(C(=O)N(C)C)ccc1-c1ccc(S(=O)(=O)N2CCC3(CC2)N=C(c2cccc(C(F)(F)F)c2)NC3=O)s1 [Compound 331, 3,N,N-trimethyl-4-{5-[4-oxo-2-(3-trifluoromethyl-phenyl)-1,3,8-triaza-spiro[4.5]dec-1-ene-8-sulfonyl]-thiophen-2-yl}-benzamide]"
8,34,"Cc1ccc(C(=O)N(C)C)cc1-c1ccc(S(=O)(=O)N2CCC3(CC2)N=C(c2ccc(F)c(C(F)(F)F)c2)NC3=O)s1 [Compound 334, 3-{5-[2-(4-fluoro-3-trifluoromethyl-phenyl)-4-oxo-1,3,8-triaza-spiro[4.5]dec-1-ene-8-sulfonyl]-thiophen-2-yl}-4,N,N-trimethyl-benzamide]"
9,36,Cc1cc2ccc1CCS(=O)(=O)N1CCC3(CC1)N=C(NC3=O)c1cc(cc(C(F)(F)F)c1)OCCCCCCCCCCN(C)C2=O [Compound 1418]
10,83,"Cc1cc(C(=O)N2CCC(O)CC2)cc(C)c1/C=C/S(=O)(=O)N1CCC2(CC1)N=C(c1cccc(C(F)(F)F)c1F)NC2=O [Compound 244, 2-(2-fluoro-3-trifluoromethyl-phenyl)-8-{(E)-2-[4-(4-hydroxy-piperidine-1-carbonyl)-2,6-dimethyl-phenyl]-ethenesulfonyl}-1,3,8-triaza-spiro[4.5]dec-1-en-4-one]"
11,57,Cc1cc2ccc1CCS(=O)(=O)N1CCC3(CC1)N=C(NC3=O)c1cc(cc(C(F)(F)F)c1)OCCCCCCOCCN(C)C2=O [Compound 1437]
12,45,"Cc1cc(C(=O)N2CCS(=O)(=O)CC2)ccc1CCS(=O)(=O)N1CCC2(CC1)N=C(C1CCCCC1)NC2=O [Compound 841, 2-cyclohexyl-8-{2-[4-(1,1-dioxo-1λ^6-thiomorpholine-4-carbonyl)-2-methyl-phenyl]-ethanesulfonyl}-1,3,8-triaza-spiro[4.5]dec-1-en-4-one]"
13,3.1,"Cc1cnc(C2=NC3(CCN(S(=O)(=O)CCc4ccc(C(=O)N(C)C)cc4C)CC3)C(=O)N2)cn1 [Compound 120, 3,N,N-trimethyl-4-{2-[2-(5-methyl-pyrazin-2-yl)-4-oxo-1,3,8-triaza-spiro[4.5]dec-1-ene-8-sulfonyl]-ethyl}-benzamide]"
14,37,"O=C1NC(C2CCCCC2)=NC12CCN(S(=O)(=O)/C=C/c1cccc3cccnc13)CC2 [Compound 633, 2-Cyclohexyl-8-((E)-2-quinolin-8-yl-ethenesulfonyl)-1,3,8-triaza-spiro[4.5]dec-1-en-4-one]"
15,38,"CC(=O)NC(C)c1ccc(/C=C/S(=O)(=O)N2CCC3(CC2)N=C(C2CCCCC2)NC3=O)cc1 (centres unmarked) [Compound 482, N-(1-{4-[(E)-2-(2-cyclohexyl-4-oxo-1,3,8-triaza-spiro[4.5]dec-1-ene-8-sulfonyl)-vinyl]-phenyl}-ethyl)-acetamide]"
16,66,"CCCCC1CCC(C2=NC3(CCN(S(=O)(=O)/C=C/c4ccc(N5C(=O)CNC5=O)cc4C)CC3)C(=O)N2)CC1 (centres unmarked) [Compound 560, 3-(4-{(E)-2-[2-(4-Butyl-cyclohexyl)-4-oxo-1,3,8-triaza-spiro[4.5]dec-1-ene-8-sulfonyl]-vinyl}-3-methyl-phenyl)-imidazolidine-2,4-dione]"
17,75,"COCCN(C(C)=O)c1cc(C)c(/C=C/S(=O)(=O)N2CCC3(CC2)N=C(C2CCC(C)CC2)NC3=O)c(C)c1 (centres unmarked) [Compound 514, N-(3,5-dimethyl-4-{(E)-2-[2-(4-methyl-cyclohexyl)-4-oxo-1,3,8-triaza-spiro[4.5]dec-1-ene-8-sulfonyl]-vinyl}-phenyl)-N-(2-methoxy-ethyl)-acetamide]"
18,110,"CC(=O)Nc1cc(C)c(/C=C/S(=O)(=O)N2CCC3(CC2)N=C(C2CCCCC2)NC3=O)c(C)c1 [Compound 204, N-{4-[(E)-2-(2-Cyclohexyl-4-oxo-1,3,8-triaza-spiro[4.5]dec-1-ene-8-sulfonyl)-vinyl]-3,5-dimethyl-phenyl}-acetamide]"
19,87,"Cc1cc(N2C(=O)NC(CO)C2=O)cc(C)c1CCS(=O)(=O)N1CCC2(CC1)N=C([C@H]1CC[C@H](C)CC1)NC2=O (some centres unmarked) [Compound 1299, 3-(3,5-Dimethyl-4-{2-[2-(4-methyl-cyclohexyl)-4-oxo-1,3,8-triaza-spiro[4.5]dec-1-ene-8-sulfonyl]-ethyl}-phenyl)-5-hydroxymethyl-imidazolidine-2,4-dione]"

# Same assay, conditions: HKRK-B7 cells; compound at 1×10^−3 M; cAMP produced as percentage of that produced by hPTH(1-34) at 100 nM; 0.1 µM
row,cAMP production activity (%),SMILES
1,66,"C#C[C@H]1CC[C@@H](C2=NC3(CCN(S(=O)(=O)CCc4ccc(NC(C)=O)cc4C)CC3)C(=O)N2)CC1 [Compound 1074, N-(4-{2-[2-(4-ethynyl-cyclohexyl)-4-oxo-1,3,8-triaza-spiro[4.5]dec-1-ene-8-sulfonyl]-ethyl}-3-methyl-phenyl)-acetamide]"
